Assay results as given in patent publication US9388171B2, “Serine/threonine kinase inhibitors” (Array BioPharma Inc., priority 2012, dated 2016).
Read-outs that look alike come from different tables or passages of the source.

What was measured:
[1] = molecular target: human ERK-2 (Mitogen Activated Kinase 1) (Homo sapiens (Human), UniProt P28482); assay: ERK-2 Enzymatic Assay; assay type: biochemical
Protocol: Compounds were tested in an enzymatic assay using human ERK-2 (Mitogen Activated Kinase 1), recombinantly expressed as an n-terminal 6-His fusion protein in E. coli and corresponding to a 8-360. The substrate used was the fluorescent Omnia peptide S/T17 (Invitrogen of Carlsbad, Calif.; Cat. KNZ1171C). Test compounds were diluted in DMSO in 3-fold serial dilutions at 100× final concentrations. […] The assay was run at ambient temperature in a white 384-well polypropylene plate (Nunc, Inc of Naperville, Ill.; Cat. 267462) collecting data every 50 seconds for approximately 30 minutes on an Envision plate reader (PerkinElmer, Inc. of Waltham, Mass.); Excitation 340 nm/Emission 495 nm. The data collected from each well was fit to a straight line, and the resulting rates were used to calculate percent of control. Percent of control was plotted against compound concentration, and IC50 values were determined using a four-parameter fit. Representative data is in TABLE 3 (infra).

[2] = system: PMA-stimulated P90RSK(Ser380) phosphorylation in HepG2 cells; assay: Cellular P90RSK(Ser380) Phosphorylation Assay; assay type: cell-based; conditions: Homo sapiens, 1.5 hour compound incubation, PMA 100 ng/mL
Protocol: Cellular P90RSK(Ser380) Phosphorylation Assay
Inhibition of PMA-stimulated P90RSK(Ser380) phosphorylation was determined by the following in vitro cellular mechanistic assay, which comprises incubating cells with a compound for 1.5 hours and quantifying fluorescent pP90RSK(Ser380) signal on fixed cells and normalizing to GAPDH signal.
Materials and Methods: HepG2 cells were obtained from ATCC and grown in DMEM supplemented with 10% fetal bovine serum. Cells were plated in 96-well plates at 35,000 cells/well and allowed to attach overnight at 37° C./5% CO2. Diluted compounds were then added at a final concentration of 0.5% DMSO. After 1.5 hour compound incubation, cells were stimulated with the addition of PMA (phorbol 12-myristate 13-acetate) at a final concentration of 100 ng/mL; the PMA stimulation was a 30-minute incubation at 37° C./5% CO2. After the 30-minute PMA stimulation, cells were washed with PBS and fixed in 3.7% formaldehyde in PBS at room temperature for 15-20 minutes. This was followed by another wash in PBS and then permeabilization in 100% MeOH at room temperature for 10-15 minutes. Following the permeabilization incubation, cells were washed in PBS/0.05% Tween-20, followed by a block in Odyssey blocking buffer (LI-COR Biosciences) for at least 1 hour. […] Both secondary antibodies were used at a 1:1000 dilution. Cells were then washed and analyzed for fluorescence at both wavelengths using the Odyssey Infrared Imaging System (LI-COR Biosciences). Phosphorylated P90RSK(Ser380) signal was normalized to GAPDH signal.

[3] = 25 uM ATP, Omnia peptide S/T17, read-out: Erk Enzymatic Assay IC50

Sequence of human ERK-2 (Mitogen Activated Kinase 1) (P28482 8-360): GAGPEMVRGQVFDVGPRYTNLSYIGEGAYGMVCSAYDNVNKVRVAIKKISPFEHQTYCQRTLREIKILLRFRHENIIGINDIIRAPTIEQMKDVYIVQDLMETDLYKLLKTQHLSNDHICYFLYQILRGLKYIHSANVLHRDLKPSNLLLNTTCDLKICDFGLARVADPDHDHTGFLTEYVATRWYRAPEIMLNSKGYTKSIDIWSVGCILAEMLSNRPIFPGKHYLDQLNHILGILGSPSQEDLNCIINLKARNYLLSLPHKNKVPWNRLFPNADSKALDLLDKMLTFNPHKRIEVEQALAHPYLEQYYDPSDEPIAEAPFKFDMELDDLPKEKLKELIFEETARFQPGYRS

Structure (SMILES) | IC50 ([1]; read-out: ERK IC50) | IC50 [1, 3] | IC50 [2]
COc1ccc([C@H](NC(=O)c2ccc3cnc(N[C@H]4CCOC4)cc3n2)c2cnn(C)c2)cc1F (single isomer, unassigned) [I-52] | 1.27 nM | – | –
COc1ccc([C@H](NC(=O)c2ccc3cnc(N[C@@H]4CCOC4)cc3n2)c2cnn(C)c2)cc1F (single isomer, unassigned) [I-53] | 2.75 nM | – | –
O=C(N[C@H](CO)c1ccc(Cl)c(F)c1)c1ccc2cnc(NC3CCOCC3)cc2n1 [I-5, 7-(Tetrahydro-pyran-4-ylamino)-[1,6]naphthyridine-2-carboxylic acid [(S)-1-(4-chloro-3-fluoro-phenyl)-2-hydroxy-ethyl]-amide] | – | 4.04 nM | 16.3 nM
CC[C@@H](NC(=O)c1ccc2cnc(NC3CCOCC3)cc2n1)c1ccc(OC)c(F)c1 [I-6, 7-(Tetrahydro-pyran-4-ylamino)-[1,6]naphthyridine-2-carboxylic acid [(R)-1-(3-fluoro-4-methoxy-phenyl)-propyl]-amide] | – | 2.1 nM | 5.96 nM
Cn1nccc1Nc1cc2nc(C(=O)N[C@H](CO)c3ccc(Cl)c(F)c3)ccc2cn1 [I-8, 7-(2-Methyl-2H-pyrazol-3-ylamino)-[1,6]naphthyridine-2-carboxylic acid [(S)-1-(4-chloro-3-fluoro-phenyl)-2-hydroxy-ethyl]-amide] | – | – | 9.84 nM
O=C(NCc1ccc(Cl)c(F)c1)c1ccc2cnc(NC3CCOCC3)cc2n1 [I-11, 7-(Tetrahydro-pyran-4-ylamino)-[1,6]naphthyridine-2-carboxylic acid 4-chloro-3-fluoro-benzylamide] | – | 3.43 nM | 98.9 nM
COc1ccc([C@H](NC(=O)c2ccc3cnc(NC4CCOCC4)cc3n2)c2cnn(C)c2)cc1F [I-21, (S)—N-((3-Fluoro-4-methoxyphenyl)(1-methyl-1H-pyrazol-4-yl)methyl)-7-(tetrahydro-2H-pyran-4-ylamino)-1,6-naphthyridine-2-carboxamide] | – | 1.86 nM | 18.7 nM
COc1ccc([C@H](NC(=O)c2ccc3cnc(N[C@@H](C)CO)cc3n2)c2cnn(C)c2)cc1F [I-24, N—((S)-(3-Fluoro-4-methoxyphenyl)(1-methyl-1H-pyrazol-4-yl)methyl)-7-((S)-1-hydroxypropan-2-ylamino)-1,6-naphthyridine-2-carboxamide] | – | 1.15 nM | 37.8 nM
O=C(NCCc1ccccc1)c1ccc2cnc(NC3CCOCC3)cc2n1 [I-30, 7-(Tetrahydro-pyran-4-ylamino)-[1,6]naphthyridine-2-carboxylic acid phenethyl-amide] | – | 5.95 nM | 476 nM

Other lines, results leading:

IC50 ([1]; read-out: ERK IC50) | IC50 [1, 3] | IC50 [2] | Structure (SMILES)
– | 2.5 nM | 8.5 nM | CC[C@@H](NC(=O)c1ccc2cnc(NC3CCOCC3)cc2c1)c1ccc(Cl)c(F)c1 [II-2, 3-(Tetrahydro-pyran-4-ylamino)-isoquinoline-6-carboxylic acid [(R)-1-(4-chloro-3-fluoro-phenyl)-propyl]-amide]
– | 2.8 nM | 14.8 nM | O=C(N[C@H](CO)c1ccc(Cl)c(F)c1)c1ccc2cnc(NC3CCOCC3)cc2c1 [II-12, 3-(Tetrahydro-pyran-4-ylamino)-isoquinoline-6-carboxylic acid [(S)-1-(4-chloro-3-fluoro-phenyl)-2-hydroxy-ethyl]-amide]
– | 2.29 nM | 9.97 nM | Cn1cc([C@@H](NC(=O)c2ccc3cnc(Nc4ccnn4C)cc3c2)c2ccc(Cl)c(F)c2)cn1 [II-15, (S)—N-((4-Chloro-3-fluorophenyl)(1-methyl-1H-pyrazol-4-yl)methyl)-3-(1-methyl-1H-pyrazol-5-ylamino)isoquinoline-6-carboxamide]
– | 20.2 nM | 65.1 nM | C[C@@H](CO)Nc1cc2cc(C(=O)NCc3cc4c(F)cccc4[nH]3)ccc2cn1 [II-23, 3-((S)-2-Hydroxy-1-methyl-ethylamino)-isoquinoline-6-carboxylic acid (4-fluoro-1H-indol-2-ylmethyl)-amide]
– | 4.6 nM | 30.4 nM | COc1ccc([C@H](NC(=O)c2ccc3cnc(Nc4cc(C)nn4C)cc3c2)c2cnn(C)c2)cc1F [II-37, (S)-3-(1,3-Dimethyl-1H-pyrazol-5-ylamino)-N-((3-fluoro-4-methoxyphenyl)(1-methyl-1H-pyrazol-4-yl)methyl)isoquinoline-6-carboxamide]
– | 6.5 nM | 15.7 nM | CC[C@@H](NC(=O)c1ccc2cnc(Nc3cc(C)nn3C)cc2c1)c1ccc(Cl)c(F)c1 [II-46, (R)—N-(1-(4-Chloro-3-fluorophenyl)propyl)-3-(1,3-dimethyl-1H-pyrazol-5-ylamino)isoquinoline-6-carboxamide]
– | 2.68 nM | 5.47 nM | COc1ccc([C@@H]2CN(C)C[C@H]2NC(=O)c2ccc3cnc(Nc4cc(C)nn4C)cc3c2)cc1 [II-64, 3-((1,3-dimethyl-1H-pyrazol-5-yl)amino)-N-((3S,4R)-4-(4-methoxyphenyl)-1-methylpyrrolidin-3-yl)isoquinoline-6-carboxamide]
